Entries after “also recorded” stand apart in the source; their conditions may differ.

Type in all cases: cell-based, human
In assay [1] the test system is GFAP in hGBM-1, hGBM-5 and hGBM-14 cells. Nature of the assay: GFAP expression by immunocytochemistry and Western blot in primary glioblastoma cultures. The method, then:
(§1) Tumour cells cultured on laminin/poly-ornithine coated glass chamber slides were washed in phosphate buffered saline (PBS) and fixed in 4% paraformaldehyde in phosphate buffer for 10 minutes. Cells were washed in PBS three times and incubated with primary antibodies diluted in buffer (0.3% TX-100 (Sigma), albumin fraction V (Sigma), phosphate buffer pH 7.0) over night at 4° C. Secondary antibodies conjugated with FITC or Cy3 (Jackson lmmunoresearch Laboratories) were applied for one hour at room temperature, followed by rinsing with PBS. Antibodies bound were visualized with epifluorescence microscopy using a Leica DMRB microscope, and photographs were taken using a Nikon F50 camera. The following antibodies were used at specified dilutions: monoclonal anti GFAP, 1:500 (DAKO), monodonal anti Cx43 (1:1000, Transduction Laboratories), and FITC (1:80)-conjugated secondary antibodies (Jackson lmmunoresearch Laboratories). Primary glioblastoma cells were grown to 75% confluency and cultured for 48 hours in the presence or absence of 4-PB (2, 5 and 10 mM) and processed as previously described (Asklund et al, Exp cell Res, 2003, 284:183-193). Briefly, cell extracts, containing equal amount of protein (30 μg/lane for Cx43 detection and 60 μg/lane for GFAP detection) were loaded on 10% polyacrylamide gels, separated by SDS-PAGE, and electro-transferred onto nitrocellulose membranes. A rabbit polyclonal antibody to Cx43 diluted 1:8000 (Sigma) or a mouse monoclonal antibody to GFAP diluted 1:1000 (Pharmingen) were applied overnight at 40° C. The detection step was performed with the enhanced chemiluminescence (ECL) detection kit (Amersham). The membranes were exposed to Hyperfilm-ECL (Amersham) for 1-5 min. For quantification, films were scanned and analysed with Image Gauge (version 3.12, Fuji Photo Film Corp.). Data analysis was performed using the program Sigma Plot for Windows (version 6, Jandel Corp.). All results are expressed as means ± SE for the indicated number of experiments (FIG. 6).

The test system of assay [2] is hGBM-1, hGBM-5 and hGBM-14 glioblastoma cultures. The assay can be described thus: MTT assay of cell viability and proliferation in primary glioblastoma cultures. The method, then:
Proliferation of cultured glioma cells was assessed by 3-(4,5-dimethylthiazol-2-yl)-2,5-diphenyltetrazolium bromide (MTT, Sigma) assay. MTT tetrazolium salt was dissolved in serum-free culture medium (0.5 mg/ml), added to the cells (150 μl/well) and incubated for 30 min at 37° C. Formazan dye, formed by viable cells, was solubilized in 300 μl of isopropanol. Aliquots (100 μl) of the solutions were transferred to 96-well microplates. The absorbance at 570 nm (with reference at 650 nm) was measured using a microtiter plate spectrophotometer (Anthos HT III). The results were expressed as percentage of viablecells compared to the control sample of untreated cells (100%).

Assay [3] deals with U87MG/tomato kinase positive cells. Nature of the assay: Synergistic cell killing effect of AZT and 4-PB. The conditions noted are these: 72 hours. The method, then:
Medium was replaced by 300 μL of MTT solution (0.5mg/mL; Sigma # M 2128) per well and incubated at 37° C. for 30 minutes. The MTT solution was aspirated and 350 μL of isopropranol was added to dissolve the formazan product by gentle shaking. Three 100 μL aliquots of formazan solution from each well were pipetted into a 96-well microplate. Optical density was measured by Multiscan RMCC/340 plate reader (MicroELISA Reader) at 570 nm with reference at 650 nm. The results were expressed as percentage of live cells compared to control untreated cells (100%). The analyses were run as three independent experiments.

Assay [4] relates to gap junction communication between HNSC100 neural stem cells and glioblastoma cells. The assay can be described thus: Fluorescent dye transfer between neural stem cells and glioma cells. Particulars: pre-treatment 48 hours with 4-PB, 0.5 mM (stem cells) and 2 mM (glioblastoma cells). The method, then: Donor human neural stem cells (1×10^5 HNSC100) and recipient human glioblastoma cells (1×10^5 U343MGa) cells were plated each in 4 separate 35 mm petri dishes. […] Donor cells were incubated with 10 μM Dil (a fluorescent lipophilic carbocyanine tracer; Molecular Probes) and 5 μM Calcein-AM (an acetoxymethyl ester derivative; Molecular Probes) for 20 min in complete medium. Cells were washed three times with culture medium and twice with PBS to remove free dye. After trypsinization, cells were pelleted by centrifugation and resuspended in co-culture medium. Donor cells 50% confluent were added to the plate of recipient cells. AGA treatment, when performed, was always continued throughout the experiment. Assessment of functional GJC by Calcein dye transfer from donor to recipient cells was carried out after 4 hours using an Olympus BX50WI microscope.

Assay [5] has as its system Cx43 in hGBM-1, hGBM-5 and hGBM-14 cells. The assay can be described thus: Connexin 43 expression by immunocytochemistry and Western blot in primary glioblastoma cultures. The method, then: as §1, with “Briefly, cell extracts, containing equal amount of protein (30 μg/lane for Cx43 detection and 60 μg/lane for GFAP detection) were loaded on 10% polyacrylamide gels, separated by SDS-PAGE, and electro-transferred onto nitrocellulose membranes. A rabbit polyclonal antibody to Cx43 diluted 1:8000 (Sigma) or a mouse monoclonal antibody to GFAP diluted 1:1000 (Pharmingen) were applied overnight at 40° C. The detection step was performed with the enhanced chemiluminescence (ECL) detection kit (Amersham). The membranes were exposed to Hyperfilm-ECL (Amersham) for 1-5 min.” left out, “Data analysis was performed using the program Sigma Plot for Windows (version 6, Jandel Corp.).” left out

On to 4-phenylbutyrate [4-PB], for which the “phosphorylated isoform of GFAP (Western blot)” value in assay [1] (4-PB 2, 5, 10 mM, 48 hours) is reported as “remained stable”. In addition, the “GFAP immunostaining intensity (immunocytochemistry)” value in assay [1] (all three cultures, 5 mM 4-PB for 48 hours) is reported as “more intense immunostaining; also recorded: increased”. In addition, the “non-phosphorylated isoform of GFAP (Western blot)” value in assay [1] (hGBM-5 and hGBM-14, 4-PB 2, 5, 10 mM, 48 hours) is recorded as “upregulated; also recorded: increase”. The “anti-proliferative effect by phase contrast microscopy” value in assay [2] (after 24 hours of treatment) was “Anti-proliferative effects were seen”. Besides, the “4-PB concentration at which the culture shows significant sensitivity (MTT)” value in assay [2] (hGBM-1 culture) is recorded as 5 mM. Further, the “4-PB concentration at which the culture is significantly affected (MTT)” value in assay [2] (hGBM-5 culture) and in assay [2] (hGBM-14 culture) was 10 mM each time. In assay [3] (15 μM AZT and 0.5 mM 4-PB), the “combination effect on cell killing” value was “clear additive or synergistic effects”. The “effect of 4-PB on cell killing by AZT” value in assay [3] (15 μM AZT, 4-PB 0.5-8 mM) is “enhanced the effects of AZT”. Further, the “dye transfer from neural stem cells to glioblastoma cells” value in assay [4] is “can induce such gap junction communication; also recorded: substantially enhanced”. For the same substance, the “Cx43 immunoreactivity at the cell surface (immunocytochemistry)” value in assay [5] (5 mM 4-PB for 48 hours) was “marked increase”. Besides, the “non-phosphorylated and phosphorylated isoforms of Cx43 (Western blot)” value in assay [5] (4-PB 2-10 mM, 48 hours) is recorded as “increased quantitatively; also recorded: marked increase”.

Source of the values: patent US20070264241A1, “Compounds for Enhanced Cancer Therapy” (priority 2004, published 2007).
